Laboratory results taken from patent US20230293460A1, “METHOD FOR TREATING DERMATITIS” (CHANG GUNG MEMORIAL HOSPITAL, LINKOU, priority 2020, published 2023).

System: dermatitis in the hands
Experiment: Example 4: middle-aged patient with dermatitis in the hands
Type: in vivo, human
Settings: given together: clobetasol ointment (0.025%) twice a day 21 days, desloratadine 5 mg once a day + hydroxyzine 25 mg twice a day 21 days, cyclosporine 100 mg twice a day 28 days; one patient

OCCOCCN1CCN(C(c2ccccc2)c2ccc(Cl)cc2)CC1 (centres unmarked) [hydroxyzine]
scaling and chronic inflammation: did not improve

Clc1ccc2c(c1)CCc1cccnc1C2=C1CCNCC1 [desloratadine]
scaling and chronic inflammation: did not improve
